Reference: US20240398824A1, “Inhibition Of Rip Kinases For Treating Neurodegenerative Disorders” (The Johns Hopkins University, priority 2018, published 2024)

Columns and labels:
primary astrocytes = assay: A1 astrocyte conversion in primary astrocytes treated with PFF-activated microglia conditioned medium (MCM); format: cell-based, mouse; settings: astrocytes 24 h with MCM from inhibitor-treated PFF-activated microglia; in words
Experimental: Primary neuron, microglia and astrocyte cell cultures, and α-synuclein PFE's treatment: NOD2 or RIPK2 knockout mice was obtained from Jackson Laboratories (Bar Harbor, ME, USA). Primary cortical neurons were prepared from embryonic day 15.5 pups and cultured in Neurobasal medium (Gibco) supplemented with B-27, 0.5 mM L-glutamine, penicillin and streptomycin (Invitrogen, Grand Island, NY, USA) on tissue-culture plates coated with poly-L-lysine. The neurons were maintained by changing the medium every 3-4 days. Primary microglial and astrocyte cultures were performed as described previously (PMID: 26157004). Whole brains from mouse pups at postnatal day 1 (P1) were obtained. […] The total protein concentration was determined using Pierce BCA protein assay kit (Thermo Scientific), and 15 or 50 μg ml^-1 of total protein was added to mouse primary neurons for the neuronal cell death assay. […] RNA concentration was measured spectrophotometrically using NanoDrop 2000 ([…]). […] The expression levels of targeted genes were normalized to the expression of β-actin and calculated based on the comparative cycle threshold Ct method (2-ΔΔCt).

[1] = system: α-synuclein PFFs-induced PD mice; assay: α-synuclein PFFs-induced PD mouse model, IHC of ventral midbrain / SN; format: in vivo
Experimental: Study rationale and objectives: The purpose of this study was to investigate the anti-PD efficacy of Gefitinib, RIPK2 inhibitor, in the α-synuclein PFF model PD. To this end, α-synuclein PFF were injected into the striatum of NOD2 KO or RIPK2 KO. α-synuclein PFFs-induced PD mice were orally treated with Gefitinib (Gef) (30 mg/kg, once daily) after 1 month striatal α-synuclein PFF injection for 5 months and tissues were analyzed.
Mouse strain for stereotaxic α-synuclein PFFs injection: NOD2 or RIPK2 KO mice was obtained from the Jackson Laboratories (Bar Harbor, ME). All housing, breeding, and procedures were performed according to the NIH Guide for the Care and Use of Experimental Animals and approved by the Johns Hopkins University Animal Care and Use Committee.
α-synuclein protein purification and PFF preparation: Recombinant mouse α-synuclein proteins were purified as previously described with an IPTG-independent inducible pRK172 vector system. Endotoxin was depleted by ToxinEraser endotoxin removal kit (Genscript, NJ, USA). α-synuclein PFFs (5 mg ml^−1) was prepared in PBS while stirring with a magnetic stirrer (1,000 rpm at 37° C.). After a week of incubation of the α-synuclein protein, aggregates were diluted to 0.1 mg ml^−1 with PBS and sonicated for 30 s (0.5 s pulse on/off) at 10% amplitude (Branson Digital sonifier, Danbury, CT, USA). α-synuclein PFFs was validated using atomic force microscopy and transmission electron microscopy, and the ability to induce phospho-serine 129 α-synuclein (p-α-synSer129) was confirmed using immunostaining. α-synuclein PFFs was stored at −80° C. until use.
Stereotaxic α-synuclein PFFs injection and Immunohistochemistry (IHC): For stereotaxic injection of α-synuclein PFFs, 3 months old NOD2 KO or RIPK2 KO male and female mice were anesthetized with xylazene and ketamine. An injection cannula (26.5 gauge) was applied stereotaxically into the striatum (STR) (mediolateral, 2.0 mm from bregma; anteroposterior, 0.2 mm; dorsoventral, 2.6 mm) unilaterally into the right hemisphere. The infusion of 2 μL α-synuclein PFFs ([…] in PBS) or the same volume of PBS was performed at a rate of 0.2 μL per min. After the final dose, the injection cannula was maintained in the STR for additional 5 min for a complete absorption of the α-synuclein PFFs or PBS then slowly removed from the mouse brain. The head skin was closed by suturing and wound healing and recovery were monitored following surgery. For IHC analysis, animals were perfused and fixed intracardially with ice-cold PBS followed by 4% paraformaldehyde at 3 months after striatal α-synuclein PFFs injections. The brain was removed and processed for immunohistochemistry. IHC for pS129-α-synuclein immunoreactivity was performed at 3 months after the unilateral striatal α-synuclein PFFs injections. Treatment of Gefitinib was accomplished after one month of unilateral striatal α-synuclein PFFs injection, once daily.

## CC(C)(C)S(=O)(=O)c1ccc2nccc(Nc3n[nH]c4ccc(F)cc34)c2c1 [GSK583, 6-(tert-butylsulfonyl)-N-(5-fluoro-1H-indazol-3-yl) quinolin-4-amine]
Primary astrocytes
  A1 astrocyte conversion: significantly suppress

## COc1cc2ncnc(Nc3ccc(F)c(Cl)c3)c2cc1OCCCN1CCOCC1 [Gefitinib]
[1]; Gefitinib 30 mg/kg oral once daily, PFF-injected mice, Veh + PFFs 32.14 ± 1.93, mean ± SEM, n = 5
  # of p-αSyn positive signal in the SN: 16.49 ± 2.01
[1]; Gefitinib 30 mg/kg oral once daily, PFF-injected mice, Veh + PFFs 1138.72 ± 91.48, mean ± SEM, n = 5
  # of microglia in the SN: 409.15 ± 94.27
[1]; IHC, vs non-treated PD mice, in words
  microglia activation in the ventral midbrain: suppresses microglia activation
[1]; oral administration, in words
  α-synuclein PFFs induced pathologies in mice: significantly rescues α-synuclein PFFs induced pathologies
[1]; ventral midbrain, IHC, vs non-treated PD mice, in words
  LB pathology (pS129-α-synuclein immunoreactivity): significantly ameliorates LB pathology
Primary astrocytes
  A1 astrocyte conversion: significantly suppress
